Laboratory results taken from patent publication US20210038753A1, “BIOLOGICAL STERILIZATION INDICATOR WITH STERILANT RESISTANCE MODULATOR” (3M INNOVATIVE PROPERTIES COMPANY, priority 2014, published 2021).

Columns and labels:
Format in all cases: cell-based
[1] = test system: Geobacillus stearothermophilus spores; assay: Resistance of self-contained biological indicators to hydrogen peroxide sterilization, glucosidase enzyme activity fluorescence readout (ENZ+)
Experimental: (§1) PET film (.09 mm thick) was coated with colloidal silica as described in International Publication No. WO2014/189716, which is incorporated herein by reference in its entirety. […] Separate aqueous spore coating solutions were prepared as described in Example 1 with the amino acids shown in table 4 present in the coating solutions. Two microliter aliquots (containing at least 10^6 spores) of the respective spore coating solutions were deposited onto the silica-coated PET film, forming a series of spaced-apart spots on the film. The spore coated films were dried in a 60° C. incubator for 12 minutes. Circular discs (hereinafter, “coated carriers”) of the PET film, each disc including one of the dried spots, were punched out and were used to assemble self-contained biological indicators (BI) similar to that shown in FIG. 1 of International Publication No. WO2014/189716. The coated carriers described above were placed into the “spore carrier 135” shown in FIG. 1 of International Publication No. WO2014/189716. Each self-contained BI comprised a polycarbonate outer container, a breaker, a cap, and a cap filter. Disposed inside the outer container were a coated carrier along with an ampoule media containing the nutrient medium from 3M ATTEST 1292 Rapid Readout Biological Indicators plus 5g/L methionine (as described in Example 1).
(§2) The self-contained biological indicators with different concentrations of additives (Table 4) were exposed to hydrogen peroxide sterilization in STERRAD NX sterilizer. The sterilization processes were run by manually injecting 1.0 ml of 59% hydrogen peroxide per load, unless specified otherwise. The exposure time was varied to determine the resistance profile of self-contained BIs with different additive formulations. The BIs were activated by pressing down the cap to break the media ampoule. The activated BIs were placed in a bench-top fluorimeter (3M Company, St. Paul, Minn.) to detect fluorescence.
(§3) A self-contained BI that is not completely inactivated (i.e., not all of the spores are killed by the sterilization process) will resume cellular functions upon activation of the BI. The production of glucosidase enzyme by surviving spores is an indication that at least one of the spores have not been inactivated (killed) by the sterilization process. The glucosidase enzyme cleaves the 4-methylumbelliferyl-glucoside (MUG) releasing the fluorescent methyl umbelliferone, which is detected using a bench-top fluorimeter. Growth and proliferation of spores in the self-contained biological indicator can also be detected by a pH change, which may be detected by a color change of the pH indicator in the growth medium.
(§4) Self-contained biological indicators were prepared (with various additives listed in table 4) as described above in this Example. For each additive tested, a lower range and a higher range was used as a preliminary screen to identify additives modulated the resistance of the spores to the sterilant. Five self-contained BIs representing each condition were exposed to hydrogen peroxide sterilization in STERRAD NX sterilizer. The sterilization processes used a constant injection volume (1.0 ml of 59% hydrogen peroxide) and various times (e.g., 20 seconds to 7 minutes) of exposure to the hydrogen peroxide. The self-contained BIs were activated after exposure to the sterilization process and were monitored for fluorescence using a bench-top fluorimeter) and pH based color change (visually). […]
(§5) Self-contained biological indicators (with various additives listed in table 5) were prepared as described in Example 2. The self-contained biological indicators were exposed to hydrogen peroxide in a STERRAD NX sterilizer as described in Example 2. The self-contained BIs were activated after exposure to the sterilization process and were monitored for fluorescence using a bench-top fluorimeter and pH based color change (visually).

[2] = test system: Geobacillus stearothermophilus spores; assay: Resistance of self-contained biological indicators to hydrogen peroxide sterilization, growth readout by pH colour change (GRO+)
Experimental: as §1, §2, §3, §4, §5

[3] = test system: Geobacillus stearothermophilus spores; assay: Survival of spores (growth, pH indicator change) in modulator-treated self-contained biological indicators after H2O2 sterilant exposure (Example 1); details: for percentage of self-contained biological indicators that showed observable growth (pH indicator change): 2 minutes
Experimental: Tub-shaped spore carriers (polypropylene), similar to those described in International Publication No. WO2014/189716 with the exception that they were not coated with colloidal nanoparticles, were used. Liquid-cultured Geobacillus stearothermophilus spores (>10^6), were suspended in sterile water. Approximately 10 μL of the spore suspension was deposited onto the spore carriers and dried at room temperature. Aliquots (0 μL, 5 μL, or 10 μL, respectively) of a 0.5M sterile solution of L-homocysteine were deposited into the dried, spore-coated tub-shaped spore carrier. The homocysteine-coated tubs were dried at room temperature. Thus, the final dried coating on the carriers included at least 10^6 spores with 0, 2.5 or 5 micromoles of L-homocysteine, respectively.
FIG. 1. The outer container 12 was obtained from 3M ATTEST 1292 Rapid Biological Indicators (available from 3M Company; St. Paul, Minn.). The cap was obtained from 3M ATTEST 1261 Biological Indicators (3M Company). The nutrient medium was from 3M ATTEST 1292 ampoules with added methionine (5 g/L). Five individual self-contained biological indicators were exposed to different concentrations (listed in Table 3) of hydrogen peroxide for 2 minutes in a STERRAD NX sterilizer. After exposing them to the sterilization process, all of the self-contained biological indicators were activated by crushing the ampoule inside the outer container.

[4] = Table 4, modulator 0.01 weight percent in spore coating solution, H2O2 exposure 30 sec.
[5] = Table 4, modulator 0.01 weight percent in spore coating solution, H2O2 exposure 60 sec.
[6] = Table 4, modulator 0.01 weight percent in spore coating solution, H2O2 exposure 90 sec.
[7] = Table 4, modulator 0.01 weight percent in spore coating solution, H2O2 exposure 3 min.
[8] = Table 4, modulator 0.01 weight percent in spore coating solution, H2O2 exposure 7 min.
[9] = Table 4, modulator 0.1 weight percent in spore coating solution, H2O2 exposure 30 sec.
[10] = Table 4, modulator 0.1 weight percent in spore coating solution, H2O2 exposure 60 sec.
[11] = Table 4, modulator 0.1 weight percent in spore coating solution, H2O2 exposure 90 sec.
[12] = Table 4, modulator 0.1 weight percent in spore coating solution, H2O2 exposure 3 min.
[13] = Table 4, modulator 0.1 weight percent in spore coating solution, H2O2 exposure 7 min.

O=C(O)[C@@H]1CCCN1 [L-proline, reference compound]
percentage of self-contained biological indicators positive for glucosidase enzyme activity (ENZ+) [1, 4]: 100%
percentage of self-contained biological indicators positive for glucosidase enzyme activity (ENZ+) [1, 5]: 100%
percentage of self-contained biological indicators positive for glucosidase enzyme activity (ENZ+) [1, 6]: 100%
percentage of self-contained biological indicators positive for glucosidase enzyme activity (ENZ+) [1, 7]: 0%
percentage of self-contained biological indicators positive for glucosidase enzyme activity (ENZ+) [1, 8]: 0%
percentage of self-contained biological indicators positive for glucosidase enzyme activity (ENZ+) [1, 9]: 100%
percentage of self-contained biological indicators positive for glucosidase enzyme activity (ENZ+) [1, 10]: 100%
percentage of self-contained biological indicators positive for glucosidase enzyme activity (ENZ+) [1, 11]: 100%
percentage of self-contained biological indicators positive for glucosidase enzyme activity (ENZ+) [1, 12]: 0%
percentage of self-contained biological indicators positive for glucosidase enzyme activity (ENZ+) [1, 13]: 0%
sensitivity of the biological indicator to the sterilization process relative to the control with no additives ([2]; Example 2 / Comparative Example 1 (Table 4), fluorescence and growth readouts): did not result in an increased sensitivity
percentage of self-contained biological indicators positive for growth (GRO+) [2, 4]: 100%
percentage of self-contained biological indicators positive for growth (GRO+) [2, 5]: 100%
percentage of self-contained biological indicators positive for growth (GRO+) [2, 6]: 100%
percentage of self-contained biological indicators positive for growth (GRO+) [2, 7]: 0%
percentage of self-contained biological indicators positive for growth (GRO+) [2, 8]: 0%
percentage of self-contained biological indicators positive for growth (GRO+) [2, 9]: 100%
percentage of self-contained biological indicators positive for growth (GRO+) [2, 10]: 100%
percentage of self-contained biological indicators positive for growth (GRO+) [2, 11]: 100%
percentage of self-contained biological indicators positive for growth (GRO+) [2, 12]: 0%
percentage of self-contained biological indicators positive for growth (GRO+) [2, 13]: 0%

N[C@@H](CCS)C(=O)O [L-homocysteine]
resistance of spores to H2O2 compared to 0 micromoles of L-homocysteine ([3]; 2.5 micromoles of L-homocysteine, seen with 0.6 ml and 0.8 ml of 59% H2O2): decrease in resistance of spores
percentage of self-contained biological indicators that showed observable growth (pH indicator change) ([3]; 2.5 micromoles of homocysteine, 0.1 ml of 59% H2O2 (94 mg × Sec/L)): 100%
percentage of self-contained biological indicators that showed observable growth (pH indicator change) ([3]; 2.5 micromoles of homocysteine, 0.2 ml of 59% H2O2 (222 mg × Sec/L)): 80%
percentage of self-contained biological indicators that showed observable growth (pH indicator change) ([3]; 2.5 micromoles of homocysteine, 0.4 ml of 59% H2O2 (458 mg × Sec/L)): 60%
percentage of self-contained biological indicators that showed observable growth (pH indicator change) ([3]; 2.5 micromoles of homocysteine, 0.6 ml of 59% H2O2 (689 mg × Sec/L)): 60%
percentage of self-contained biological indicators that showed observable growth (pH indicator change) ([3]; 2.5 micromoles of homocysteine, 0.8 ml of 59% H2O2 (842 mg × Sec/L)): 20%
resistance of spores to H2O2 ([3]; 5.0 micromoles of L-homocysteine, all kill with 0.4 ml of 59% H2O2): reduced the resistance of spores significantly
percentage of self-contained biological indicators that showed observable growth (pH indicator change) ([3]; 5.0 micromoles of homocysteine, 0.1 ml of 59% H2O2 (94 mg × Sec/L)): 100%
percentage of self-contained biological indicators that showed observable growth (pH indicator change) ([3]; 5.0 micromoles of homocysteine, 0.2 ml of 59% H2O2 (222 mg × Sec/L)): 40%
percentage of self-contained biological indicators that showed observable growth (pH indicator change) ([3]; 5.0 micromoles of homocysteine, 0.4 ml of 59% H2O2 (458 mg × Sec/L)): 0%
percentage of self-contained biological indicators that showed observable growth (pH indicator change) ([3]; 5.0 micromoles of homocysteine, 0.6 ml of 59% H2O2 (689 mg × Sec/L)): 0%
percentage of self-contained biological indicators that showed observable growth (pH indicator change) ([3]; 5.0 micromoles of homocysteine, 0.8 ml of 59% H2O2 (842 mg × Sec/L)): 0%
